{
  "source": "patent US10688099B2",
  "about": "“Methods for modulating the amount of RNA transcripts” (PTC Therapeutics, Inc., priority 2013, dated 2020)",
  "system": "RNA isoforms in PNN 1-46 SMA type I patient-derived fibroblasts",
  "assay": "RNA Abundance Modulation (RNA isoform abundance, iFPM, HiSeq RNA sequencing)",
  "format": "cell-based, human",
  "details": "3 μM",
  "experimental": "Cells from a cell line of interest are cultured in conditions sufficient to yield the number of cells capable of generating enough RNA for subsequent sequencing steps. Cells from the tested cell line are contacted with a compound described herein.\nTo culture said cells, they are seeded, at appropriate concentrations in a volume of media in a cell culture container and incubated for 4, 5, 6, 7, 8, 9, 10, or more hours. A concentrated solution of compound in a vehicle (e.g., DMSO) is then added in sufficient volume to result in the intended final concentration of the compound, for example 100 nM, 500 nM, 1 μM, 5 μM, 10 μM, 15 μM, 20 μM, or more. The cells may also be treated with vehicle alone, as a control. A number of replicates of each concentration or control may be made (e.g., 2 replicates). The cells are then incubated at a constant temperature appropriate for cell culture of the particular cell line (e.g., 37° C.) for 6, 12, 18, 24, 48, or more hours. After incubation, the growth medium is removed and the cells are washed with the appropriate buffer (e.g., PBS). Cells are then removed from adherence to the cell culture container by treatment with a solution containing trypsin, and the trypsin subsequently quenched with the appropriate volume of buffer (e.g., DMEM-FBS). The cells are then pelleted with gentle centrifugation (e.g., ≤90×g centrifugal force) and resuspended in a buffer to lyse the cells for extraction of RNA. The cell lysates may then be frozen (e.g., at −80° C.) or, alternately, may immediately be used in a procedure to purify the RNA (e.g. by use of the RNEASY PLUS® minikit). The RNA from cell lysates is eluted in the appropriate volume of buffer (e.g., RNEASE-FREE H2O®). The resulting purified RNA may then be sequenced (e.g., using RNASeq) or analyzed using a human exon array (e.g., by GENECHIP® human exon array) to determine changes in the RNA levels in those cells treated with compound compared to those cells treated only with DMSO. The purified RNA may also be quantified by other methods known in the art.\nUsing the RNA data obtained from sequencing, exon array, or other methods, a statistical analysis can reveal changes in the RNA levels of compound-treated compared with control. For example, t-test p-values may be calculated for the data obtained through sequencing and exon array methods in order to compare compound-treated cells to those treated with the DMSO control. […] Analysis of the sequencing and exon array data may then also yield predictions about the cause of the aberrant amount of an RNA transcript in the cells (e.g., perturbation of RNA splicing, RNA transcription, or RNA stability). These predictions may be further confirmed by methods known in the art. For example, RT-PCR and RT-qPCR may be used to confirm the change in amount of RNA transcripts for one or more particular transcripts of interest.\nFollowing the methods described above in Example 1, PNN 1-46 SMA type I patient-derived fibroblasts were treated with 300 nM or 3 μM Compounds 774 and 808 in 0.5% DMSO.\n700,000 cells were seeded in 10 mL of medium (DMEM plus 10% FBS) in a T-75 flask. Cells were allowed to attach for at least 4 hrs, after which 50 μL of a 200× compound solution (100% DMSO) was added to each well, and the plate was incubated at 37° C. for 24 hrs.\nAt the end of the incubation period, the supernatant was removed and the cells where washed with PBS. TrypLE (Invitrogen) express solution was added (e.g. 1.5 mL per one T75 flask). The flasks were incubated for 3 to 5 min at 37° C. The trypsin was then quenched, e.g., by adding 10 mL DMEM-FBS.\nNext, the cells were pelleted using gentle centrifugation without exceeding 90×g centrifugal force. The supernatant was removed and the cell pellet was re-suspended in 600 μL RLT buffer (the RLT buffer was supplemented with beta-mercaptoethanol according to the RNeasy protocol manual) by pipetting up and down until the pellet was completely dissolved […]",
  "data": [
    {"smiles": "CCc1nc(C)cn2nc(-c3cc(=O)n4cc(C5CCN(C)CC5)cc(C)c4n3)cc12", "note": "[Compound 774]", "values": [
      {"measurement": "amp FC (x + 1)", "setting": "TGFBRAP1 NM_004257", "result": 156.98},
      {"measurement": "ave Cpd", "setting": "TGFBRAP1 NM_004257", "result": 0, "unit": "iFPM"},
      {"measurement": "FC (x + 1)", "setting": "TGFBRAP1 NM_001142621", "result": 1.6224},
      {"measurement": "L2FC (x + 1)", "setting": "TGFBRAP1 NM_001142621", "result": 0.698},
      {"measurement": "L2abs (Cpd-DMSO)", "setting": "TGFBRAP1 NM_001142621", "result": 7.42},
      {"measurement": "abs (Cpd-DMSO)", "setting": "TGFBRAP1 NM_001142621", "result": 172, "unit": "iFPM"},
      {"measurement": "amp FC (x + 1)", "setting": "TGFBRAP1 NM_001142621", "result": 1.62},
      {"measurement": "ave Cpd", "setting": "TGFBRAP1 NM_001142621", "result": 446, "unit": "iFPM"},
      {"measurement": "FC (x + 1)", "setting": "THADA AK025445", "result": 0.2651},
      {"measurement": "L2FC (x + 1)", "setting": "THADA AK025445", "result": "−1.915"},
      {"measurement": "L2abs (Cpd-DMSO)", "setting": "THADA AK025445", "result": 5.17},
      {"measurement": "abs (Cpd-DMSO)", "setting": "THADA AK025445", "result": 36, "unit": "iFPM"},
      {"measurement": "amp FC (x + 1)", "setting": "THADA AK025445", "result": 3.77},
      {"measurement": "ave Cpd", "setting": "THADA AK025445", "result": 12, "unit": "iFPM"},
      {"measurement": "FC (x + 1)", "setting": "THADA AK126824", "result": 0.1808},
      {"measurement": "L2FC (x + 1)", "setting": "THADA AK126824", "result": "−2.468"},
      {"measurement": "L2abs (Cpd-DMSO)", "setting": "THADA AK126824", "result": 2.55},
      {"measurement": "abs (Cpd-DMSO)", "setting": "THADA AK126824", "result": 6, "unit": "iFPM"},
      {"measurement": "amp FC (x + 1)", "setting": "THADA AK126824", "result": 5.53},
      {"measurement": "ave Cpd", "setting": "THADA AK126824", "result": 0, "unit": "iFPM"},
      {"measurement": "FC (x + 1)", "setting": "THADA AK307915", "result": 0.2071},
      {"measurement": "L2FC (x + 1)", "setting": "THADA AK307915", "result": "−2.272"},
      {"measurement": "L2abs (Cpd-DMSO)", "setting": "THADA AK307915", "result": 3.71},
      {"measurement": "abs (Cpd-DMSO)", "setting": "THADA AK307915", "result": 13, "unit": "iFPM"},
      {"measurement": "amp FC (x + 1)", "setting": "THADA AK307915", "result": 4.83},
      {"measurement": "ave Cpd", "setting": "THADA AK307915", "result": 2, "unit": "iFPM"},
      {"measurement": "FC (x + 1)", "setting": "THADA AL832141", "result": 1.7328},
      {"measurement": "L2FC (x + 1)", "setting": "THADA AL832141", "result": 0.793},
      {"measurement": "L2abs (Cpd-DMSO)", "setting": "THADA AL832141", "result": 0.72},
      {"measurement": "abs (Cpd-DMSO)", "setting": "THADA AL832141", "result": 2, "unit": "iFPM"},
      {"measurement": "amp FC (x + 1)", "setting": "THADA AL832141", "result": 1.73},
      {"measurement": "ave Cpd", "setting": "THADA AL832141", "result": 3, "unit": "iFPM"},
      {"measurement": "FC (x + 1)", "setting": "THADA AY149632", "result": 1.0000},
      {"measurement": "L2FC (x + 1)", "setting": "THADA AY149632", "result": 0.000},
      {"measurement": "L2abs (Cpd-DMSO)", "setting": "THADA AY149632", "result": 0},
      {"measurement": "abs (Cpd-DMSO)", "setting": "THADA AY149632", "result": 0, "unit": "iFPM"},
      {"measurement": "amp FC (x + 1)", "setting": "THADA AY149632", "result": 1.00},
      {"measurement": "ave Cpd", "setting": "THADA AY149632", "result": 0, "unit": "iFPM"},
      {"measurement": "FC (x + 1)", "setting": "THADA BX641038", "result": 0.6958},
      {"measurement": "L2FC (x + 1)", "setting": "THADA BX641038", "result": "−0.523"},
      {"measurement": "L2abs (Cpd-DMSO)", "setting": "THADA BX641038", "result": 0.60},
      {"measurement": "abs (Cpd-DMSO)", "setting": "THADA BX641038", "result": 2, "unit": "iFPM"},
      {"measurement": "amp FC (x + 1)", "setting": "THADA BX641038", "result": 1.44},
      {"measurement": "ave Cpd", "setting": "THADA BX641038", "result": 2, "unit": "iFPM"},
      {"measurement": "FC (x + 1)", "setting": "THADA NM_022065", "result": 0.3170},
      {"measurement": "L2FC (x + 1)", "setting": "THADA NM_022065", "result": "−1.658"},
      {"measurement": "L2abs (Cpd-DMSO)", "setting": "THADA NM_022065", "result": 9.36},
      {"measurement": "abs (Cpd-DMSO)", "setting": "THADA NM_022065", "result": 657, "unit": "iFPM"},
      {"measurement": "amp FC (x + 1)", "setting": "THADA NM_022065", "result": 3.15},
      {"measurement": "ave Cpd", "setting": "THADA NM_022065", "result": 304, "unit": "iFPM"},
      {"measurement": "FC (x + 1)", "setting": "THADA NM_001083953", "result": 0.0135},
      {"measurement": "L2FC (x + 1)", "setting": "THADA NM_001083953", "result": "−6.211"},
      {"measurement": "L2abs (Cpd-DMSO)", "setting": "THADA NM_001083953", "result": 6.19},
      {"measurement": "abs (Cpd-DMSO)", "setting": "THADA NM_001083953", "result": 73, "unit": "iFPM"},
      {"measurement": "amp FC (x + 1)", "setting": "THADA NM_001083953", "result": 74.06},
      {"measurement": "ave Cpd", "setting": "THADA NM_001083953", "result": 0, "unit": "iFPM"},
      {"measurement": "FC (x + 1)", "setting": "THADA NM_001271643", "result": 1.1557},
      {"measurement": "L2FC (x + 1)", "setting": "THADA NM_001271643", "result": 0.209},
      {"measurement": "L2abs (Cpd-DMSO)", "setting": "THADA NM_001271643", "result": 2.41},
      {"measurement": "abs (Cpd-DMSO)", "setting": "THADA NM_001271643", "result": 5, "unit": "iFPM"},
      {"measurement": "amp FC (x + 1)", "setting": "THADA NM_001271643", "result": 1.16},
      {"measurement": "ave Cpd", "setting": "THADA NM_001271643", "result": 38, "unit": "iFPM"},
      {"measurement": "FC (x + 1)", "setting": "THADA NM_001271644", "result": 4.4176},
      {"measurement": "L2FC (x + 1)", "setting": "THADA NM_001271644", "result": 2.143},
      {"measurement": "L2abs (Cpd-DMSO)", "setting": "THADA NM_001271644", "result": 3.80},
      {"measurement": "abs (Cpd-DMSO)", "setting": "THADA NM_001271644", "result": 14, "unit": "iFPM"},
      {"measurement": "amp FC (x + 1)", "setting": "THADA NM_001271644", "result": 4.42},
      {"measurement": "ave Cpd", "setting": "THADA NM_001271644", "result": 17, "unit": "iFPM"},
      {"measurement": "FC (x + 1)", "setting": "THADA NR_073394", "result": 0.6844},
      {"measurement": "L2FC (x + 1)", "setting": "THADA NR_073394", "result": "−0.547"},
      {"measurement": "L2abs (Cpd-DMSO)", "setting": "THADA NR_073394", "result": "−0.13"},
      {"measurement": "abs (Cpd-DMSO)", "setting": "THADA NR_073394", "result": 1, "unit": "iFPM"},
      {"measurement": "amp FC (x + 1)", "setting": "THADA NR_073394", "result": 1.46},
      {"measurement": "ave Cpd", "setting": "THADA NR_073394", "result": 1, "unit": "iFPM"},
      {"measurement": "FC (x + 1)", "setting": "TIMP2 AK294290", "result": 0.0109}
    ]}
  ]
}
